Reference: US5413991A (Ajinomoto Co., Inc., priority 1991, dated 1995)

Legend:
[1] = target: chitinase from baker's yeast (Saccharomyces cerevisiae) (Saccharomyces cerevisiae, UniProt P29029); details: background statement; cited from earlier work
[2] = system: chitinase of pathogenic fungi such as Candida albicans; details: background statement; cited from earlier work
fungi-derived chitinase = details: background statement; cited from earlier work
[3] = system: silkworm-derived chitinase; details: background statement; cited from earlier work
[4] = target: chitinase from Trichoderma sp. (Chitinase T-1); assay: Assay for chitinase inhibitory activity, chitinase from Trichoderma sp.; format: biochemical; details: McIlvaine buffer pH 5.2, substrate 4MBTC
Experimental: The chitinase from Trichoderma sp. was provided for use in the assay described in procedure (ii) below by diluting commercially available Chitinase T-1 (manufactured by Asahi Industry Co., Ltd.) with MclIvanine buffer (obtained by adding 0.2M aqueous disodium hydrogen phosphate to 0.1M aqueous citric acid and adjusting the pH to 5.2) to a concentration of 50 μg/ml.
(§1) In a 20 ml vial bottle, 50 μl of the chitinase solution from Candida albicans prepared as described above,s 50 μl of 100 μg/ml aqueous 4-methylumbelliferyl β-D-N,N',N"-triacetyl-chitotrioside (hereinafterabbreviated as 4MBTC, SIGMA Co.), 75 μl of 50 mM bis-Tris buffer (pH 6.5) and 25 μl of 0.1N acetic acid were added and mixed. The reaction was carried out at 37° C. for 30 minutes. As a blank, the reaction was carried out in an identical manner, substituting 50 mM bis-Tris buffer (pH 6.5) for the enzyme solution. After the reaction, sufficient 0.5M glycine-sodium hydroxide buffer (pH 10.4) was added to make the total volume 5 ml. Then, the fluorescent intensity was determined with a fluorophotometer (manufactured by Hitachi Ltd., MPF-4). The excited wavelength was 350 nm, and the fluorescent wavelength was 400 nm. Chitinase activity was determined using the difference in the fluorescent intensity between the read-out data from the sample containing the enzyme and the blank read-out data.
(§2) In determining the inhibitory activity of AJI9463A, AJI9463B, AJI9463C, and the partially hydrolyzed disaccharides thereof, each compound was dissolved in 0.1N acetic acid, and 25 μl of the compound solution was substituted for the 25 μl of 0.1N acetic acid in the reaction system described above. Further, in determining the inhibitory activity against the chitinases of baker's yeast and Trichoderma sp., the assay was performed by changing the buffer in the reaction system described above from 50 mM bis-Tris buffer (pH 6.5) to 0.1M citrate buffer (pH 3.0) and MclLvanine buffer (pH 5.2), respectively.

[5] = target: T1, chitinase from baker's yeast (S cerevisiae) (Saccharomyces cerevisiae, UniProt P29029); assay: Assay for chitinase inhibitory activity, chitinase from baker's yeast; format: biochemical; details: 0.1M citrate buffer pH 3.0, substrate 4MBTC
T1 construct: was shaken at 30° C. for 2 hours at 120 spm to extract the enzyme; host or cells: commercial baker's yeast, digitonin extract
T1 sequence (P29029 21-562): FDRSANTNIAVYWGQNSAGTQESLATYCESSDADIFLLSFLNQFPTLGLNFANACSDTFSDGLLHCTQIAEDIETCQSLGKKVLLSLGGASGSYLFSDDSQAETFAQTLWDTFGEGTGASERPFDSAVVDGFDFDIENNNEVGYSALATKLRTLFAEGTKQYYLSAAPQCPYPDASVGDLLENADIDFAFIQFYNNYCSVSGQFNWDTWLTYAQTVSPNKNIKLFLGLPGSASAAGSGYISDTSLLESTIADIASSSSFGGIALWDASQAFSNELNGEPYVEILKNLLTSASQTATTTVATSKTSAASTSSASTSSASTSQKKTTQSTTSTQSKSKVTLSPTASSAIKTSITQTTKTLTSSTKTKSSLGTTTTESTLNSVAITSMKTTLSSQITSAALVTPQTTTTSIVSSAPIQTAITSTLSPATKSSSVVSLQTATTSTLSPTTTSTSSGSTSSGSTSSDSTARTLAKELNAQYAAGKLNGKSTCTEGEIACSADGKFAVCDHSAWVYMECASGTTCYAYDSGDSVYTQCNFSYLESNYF
Experimental: The chitinase from baker's yeast (S cerevisiae) was prepared by the following method. Firstly, 400 g of baker's yeast (manufactured by Kanegafuchi Chemical Industry Co., Ltd.) was suspended in buffer for enzyme extraction (0.1% digitonin: manufactured by Wako Pure Chemical Industry Co., Ltd.), 0.1% β-mercaptoethanol and 2 liters of 25 mM MES (manufactured by Nakarai Chemical Co., Ltd.), and was shaken at 30° C. for 2 hours at 120 spm to extract the enzyme. The extract was centrifuged at 12,000 g for 10 minutes and the supernatant was recovered. The supernatant was concentrated to about one-fifth of the volume by ultrafiltration (UP-20). After 800 ml of sodium citrate buffer (obtained by adding 0.15M aqueous sodium citrate to 0.15M aqueous citric acid, and adjusting the pH to 3.0) was added to the concentrate, the precipitates were removed by centrifugation (0° C., 12,000 g, 10 minutes). The supernatant was again concentrated by ultrafiltration (UP-20) to about 80 ml. The resulting concentrate was used as the chitinase from baker's yeast in the assay described in procedure (ii) below.
as §1, §2

[6] = system: endo-type chitinase of insects; details: background statement; cited from earlier work
[7] = system: chitinase from Candida albicans; assay: Assay for chitinase inhibitory activity, chitinase from Candida albicans (4MBTC fluorescence); format: biochemical, Candida albicans ATCC 10231; details: bis-Tris buffer pH 6.5, 37° C., 30 minutes, substrate 4MBTC
Experimental: The chitinase from Candida albicans (C. albicans) was prepared by the following method. Firstly, a Sabouraud medium (pH 5.6) composed of 4 g of glucose, 1 g of polypeptone and 100 ml of water was prepared and placed in an Erlenmeyer flask of 500 ml volume. After sterilization at 120° C. for 20 minutes, one platinum loop of slant culture cells of C. albicans ATCC 10231 was inoculated into the medium, and then shake cultured at 37° C. for 2 days to obtain a primary seed mother liquor.
In a second procedure, 1 liter of Sabouraud medium having the same composition as above was prepared. Separately, 100 ml of the medium was added to each of ten 500 ml Erlenmeyer flasks, then the flasks and their contents were sterilized at 120° C. for 20 minutes. Thereafter, 2 ml of the primary seed mother liquor described above was added to each flask. The flask was shaken at 37° C. for 2 days to obtain a secondary seed mother liquor.
In a third procedure, 50 liters of Sabouraud medium having the same composition as described above was prepared and added to a culture tank of 100 liter volume. The tank and its contents were sterilized at 120° C. for 30 minutes. In the tank, 1 liter of the secondary seed mother liquor described above was added. Shake culturing was then conducted at 37° C. for 15 hours. At this stage, the stirring velocity was 140 rpm and the aerial rate was 10 l/min. The resulting culture broth was centrifuged by a sharpless centrifuging machine to recover the cells. The wet weight of the thus obtained cells was 250 g.
The cells were suspended in 800 ml of a buffer for cell homogenization (50 mM bis-Tris, 0.25M saccharose, 1 mM disodium ethylenediaminetetraacetate, pH 6.5). The suspension was twice passed through a Dyno-mill disintegrator (beads: MK-2GX, 0.25-0.5 mm) to disrupt the cells, and the supernatant was recovered. The supernatant was centrifuged at 9000 g for 30 minutes, then further super-centrifuged at 152,000 g for an hour. The supernatant thereof was recovered, and was concentrated to about one-fifth of the volume by ultrafiltration (Toyo Ultrafilter UP-20), having an excluding limiting molecular weight of 20,000. The concentrate was used as the crude chitinase solution from Candida albicans in the assay described in procedure (ii) below.
as §1, §2

## CNC1=N[C@@H]2[C@@H](O)[C@H](O[C@@H]3O[C@H](CO)[C@@H](O[C@@H]4O[C@H](CO)[C@@H](O)[C@@H](O)[C@H]4NC(C)=O)[C@@H](O)[C@H]3NC(C)=O)[C@@H](CO)[C@@H]2O1 [Demethylallosamidin, demethylallosamidin]
[1]
  Inhibitory activity against chitinase from baker's yeast: potent inhibitory activity
[2]
  Inhibitory activity against chitinase of Candida albicans: insufficient

## COC[C@H]1O[C@@H](O[C@H]2[C@@H](O)[C@@H](NC(C)=O)[C@H](OC3C(O)C4N=C(N(C)C)OC4C3CO)O[C@@H]2CO)[C@H](NC(C)=O)[C@H](O)[C@@H]1O (some centres unmarked) [Methylallosamidin, methylallosamidin, reference compound]
fungi-derived chitinase
  Inhibitory activity against fungi-derived chitinase: weak inhibitory activity
[3]
  Inhibition of silkworm-derived chitinase: inhibitors
[4]
  Chitinase Inhibitory Activity IC50, Trichoderma sp.: 1.2 µg/mL
[5]
  IC50: 58.4 µM
[6]
  Inhibition of endo-type chitinase of insects: strongly inhibit
[7]
  Chitinase Inhibitory Activity IC50, C. albicans: 8.8 µg/mL
